Source: US20140039044A1, “Hydroxylated Polymethoxyflavone Compositions” (WLLGEN, INC., priority 2006, published 2014)
Read-outs that look alike come from different tables or passages of the source.

Assays:
Format in all cases: cell-based, human
COLO205 cells [1] = test: Cell cycle distribution by flow cytometry; details: 24 h; for Cell Cycle Distribution G0/G1 / Cell Cycle Distribution G2/M / Cell Cycle Distribution S: COLO205 cells, Table 12
Method: (§1) The human cancer cells (2×10^5) were cultured in 60-mm Petri dishes and incubated for 24 h. After treated with test compounds for 24 h, the cells were then harvested, washed with PBS resuspended in 200 μL of PBS, and fixed in 800 μL of iced 100% ethanol at −20° C. After being left to stand overnight, the cell pellets were collected by centrifugation, resuspended in 1 mL of hypotonic buffer (0.5% Triton X-100 in PBS and 0.5 μg/mL RNase) and incubated at 37° C. for 30 min. Next, 1 mL of propidium iodide solution (50 μg/mL) was added, and the mixture was allowed to stand on ice for 30 min. Fluorescence emitted from the propidium iodide-DNA complex was quantitated after excitation of the fluorescent dye by FACScan cytometry (Becton Dickinson, San Jose, Calif.).
(§2) The effects of the hydrolyzed PMF-enriched compositions, nobiletin and 70% PMF OPE on cell cycle distribution were studied, following the procedures described in Section 8.4. Results for cell cycle distribution in HL-60 cells, COLO205 cells and AGS cells are provided in Table 5, Table 6 and Table 7, respectively. […] In HL-60 cells, G2/M arrest predominated in cells treated with 6N PMF concentrations ≧5 μM and with 1N PMF concentrations ≧25 μM.
(§3) Compounds A-K were evaluated in terms of their effects in arresting cell cycle progression by observing cell cycle phase distribution in cells treated with the compounds. Cells were treated with 5, 10, 25, 50, and 100 μM of one of compound A-K or DMSO (control) for 24 h and subjected to flow cytometric analysis after staining their DNA, as described above.
(§4) Similar cell cycle phase distribution studies were performed in AGS, COLO205, and HT-29 cells in response to individual PMFs, with results reported in Tables 11, 12 and 13, respectively.

AGS cells [2] = test: Cell cycle distribution by flow cytometry; details: 24 h, Table 11
Method: as §1, §2, §3, §4

HL-60 cells = test: Cell survival assay (antiproliferative IC50); details: Homo sapiens
Method: (§5) Human colon carcinoma COLO205 and HT-29 cell lines (American Type Culture Collection (ATTC), Manassas, Va.) and the leukemia cell line HL-60 were maintained at 37° C. in 5% CO2 air in RPMI 1640 medium supplemented with 10% heat-inactivated fetal bovine serum (Gibco BRL, Grand Island, N.Y.), 100 units/mL penicillin, 100 μg/mL streptomycin and 2 mM 1-glutamine. The human gastric carcinoma AGS cell line (CCRC 60102), obtained from the Food Industry Research and Development Institute (Hsinchu, Taiwan), was maintained as described above, except that DMEM/F 12 was used as the medium rather than the RPMI 1640 medium. The human breast carcinoma MCF-7 cell line MCF-7 (ATTC) was cultured in RPMI 1640 medium supplemented with 5% fetal calf serum at 37° C. in a humidified atmosphere of 5% CO2 in air. The mouse macrophage cell line RAW 264.7 was maintained in RPMI 1640 supplemented with 100 U/ml penicillin, 100 μg/ml streptomycin, and 10% heat-inactivated fetal calf serum.
(§6) Cancer cells (2×10^5) were plated in 12-well Petri dishes. The next day, the medium was changed and treated with different concentration of the test compounds or compositions for 24 h. Where individual compounds were to be tested, stock solutions of the compound was prepared to contain 200 μM of the individual hydroxylated or non-hydroxylated PMF in dimethylsulfoxide (DMSO). Control cells were treated with DMSO to a final concentration of 0.05% (v/v). Depending on the objective of the particular experiment, cells were treating with test compound or composition for 1, 3 or 6 days. At the end of incubation, cells were harvested for cell count using a hemocytometer and measuring the cellular total nucleic acid content with the CyQUANT Cell Proliferation Assay Kit (Molecular Probes).
(§7) 1 N PMF and 6 N PMF compositions containing hydroxylated PMFs, prepared as described in Section 8.3 above, 70% PMF OPE and 5,6,7,8,3′,4′-hexamethoxyflavone (nobiletin) were tested for antiproliferative activity and apoptosis-inducing activity in HL-60, AGS and COLO205 cells as described in Section 8.4 above. Antiproliferative and apoptosis-inducing activities were derived as IC50 values and AC50, values, respectively, where AC50 is the concentration required for 50% apoptosis.
(§8) The PMF compounds were assayed in vitro for cell growth inhibition and for their ability to induce apoptosis in various human cancer cells, including HL-60, AGS, COLO 205, and HT-29 cells, using methods described in Section 8.4 above. Antiproliferative (IC50) and apoptosis-inducing activity (AC50) of PMFs in the HL-60, AGS, COLO 205, and HT-29 cells are reported in Table 9, where *P<0.05, **P<0.01 and ***P<0.001 indicate statistically significant differences from the control group.

COLO205 cells [3] = test: Cell survival assay (antiproliferative IC50); details: Homo sapiens
Method: as §5, §6, §7, §8

AGS cells [4] = test: Cell survival assay (antiproliferative IC50); details: Homo sapiens, read-out: Antiproliferative IC50
Method: as §5, §6, §7, §8

HT-29 cells = test: Cell survival assay (antiproliferative IC50); details: Homo sapiens
Method: as §5, §6, §8

[5] = HL-60, read-out: Antiproliferative IC50
[6] = COLO 205, read-out: Antiproliferative IC50

Row | SMILES | Cell Cycle Distribution G0/G1 (COLO205 cells [1]; 5 μM) | Cell Cycle Distribution G2/M (COLO205 cells [1]; 5 μM) | Cell Cycle Distribution S (COLO205 cells [1]; 5 μM) | Cell Cycle Distribution G0/G1 (COLO205 cells [1]; 10 μM) | Cell Cycle Distribution G2/M (COLO205 cells [1]; 10 μM) | Cell Cycle Distribution S (COLO205 cells [1]; 10 μM) | Cell Cycle Distribution G0/G1 (COLO205 cells [1]; 25 μM) | Cell Cycle Distribution G2/M (COLO205 cells [1]; 25 μM) | Cell Cycle Distribution S (COLO205 cells [1]; 25 μM) | Cell Cycle Distribution G0/G1 (COLO205 cells [1]; 50 μM) | Cell Cycle Distribution G2/M (COLO205 cells [1]; 50 μM) | Cell Cycle Distribution S (COLO205 cells [1]; 50 μM) | Cell Cycle Distribution G0/G1 (COLO205 cells [1]; 100 μM) | Cell Cycle Distribution G2/M (COLO205 cells [1]; 100 μM) | Cell Cycle Distribution S (COLO205 cells [1]; 100 μM) | Cell Cycle Distribution G0/G1 (AGS cells [2]; 5 μM) | Cell Cycle Distribution G2/M (AGS cells [2]; 5 μM) | Cell Cycle Distribution S (AGS cells [2]; 5 μM) | Cell Cycle Distribution G0/G1 (AGS cells [2]; 10 μM) | Cell Cycle Distribution G2/M (AGS cells [2]; 10 μM) | further results
1 | COc1c(OC)c(OC)c2c(=O)cc(-c3ccc(O)c(O)c3)oc2c1OC [H, 3′,4′-dihydroxy-5,6,7,8-tetramethoxyflavone] | 67.26 ± 0.45 | 8.17 ± 0.60 | 24.58 ± 0.15 | 66.67 ± 0.16 | 6.18 ± 0.63 | 27.16 ± 0.46 | 66.99 ± 1.32 | 6.89 ± 0.21 | 26.13 ± 1.11 | 64.49 ± 1.00 | 8.94 ± 1.12 | 26.57 ± 2.12 | 66.50 ± 0.06 | 6.98 ± 0.02 | 26.53 ± 0.08 | 62.78 ± 2.93 | 16.57 ± 1.93 | 20.66 ± 1.00 | 61.72 ± 2.76 | 17.39 ± 2.76 | Cell Cycle Distribution S (AGS cells [2]; 10 μM): 20.89 ± 0.00; Cell Cycle Distribution G0/G1 (AGS cells [2]; 25 μM): 63.91 ± 0.92; Cell Cycle Distribution G2/M (AGS cells [2]; 25 μM): 16.82 ± 1.04; Cell Cycle Distribution S (AGS cells [2]; 25 μM): 19.28 ± 0.12; Cell Cycle Distribution G0/G1 (AGS cells [2]; 50 μM): 63.96 ± 1.65; Cell Cycle Distribution G2/M (AGS cells [2]; 50 μM): 16.74 ± 2.15; Cell Cycle Distribution S (AGS cells [2]; 50 μM): 19.31 ± 0.51; Cell Cycle Distribution G0/G1 (AGS cells [2]; 100 μM): 68.04 ± 1.34; Cell Cycle Distribution G2/M (AGS cells [2]; 100 μM): 22.69 ± 0.13; Cell Cycle Distribution S (AGS cells [2]; 100 μM): 9.27 ± 1.46; IC50 (HL-60 cells; [5]): 71.2 ± 1.93 µM; IC50 (COLO205 cells [3]; [6]): 90.1 ± 11.9 µM; IC50 (AGS cells [4]; AGS): 69.3 ± 4.23 µM; IC50 (HT-29 cells): 74.72 ± 0.2 µM
2 | COc1cc(-c2cc(=O)c3c(OC)c(OC)c(OC)c(OC)c3o2)cc(OC)c1OC [F, 5,6,7,8,3′,4′,5′-heptamethoxyflavone, reference compound] | 68.30 ± 1.36 | 8.71 ± 0.55 | 23.00 ± 0.80 | 71.96 ± 0.24 | 8.38 ± 0.43 | 19.67 ± 0.67 | 72.22 ± 0.54 | 9.80 ± 0.20 | 17.98 ± 0.74 | 76.39 ± 0.85 | 8.02 ± 0.50 | 15.60 ± 1.35 | 78.64 ± 0.34 | 8.65 ± 0.19 | 12.71 ± 0.52 | 58.22 ± 1.10 | 14.76 ± 0.94 | 27.02 ± 0.17 | 62.41 ± 6.13 | 14.56 ± 0.58 | Cell Cycle Distribution S (AGS cells [2]; 10 μM): 23.04 ± 5.55; Cell Cycle Distribution G0/G1 (AGS cells [2]; 25 μM): 62.24 ± 0.71; Cell Cycle Distribution G2/M (AGS cells [2]; 25 μM): 15.34 ± 1.30; Cell Cycle Distribution S (AGS cells [2]; 25 μM): 22.57 ± 2.21; Cell Cycle Distribution G0/G1 (AGS cells [2]; 50 μM): 65.87 ± 0.93; Cell Cycle Distribution G2/M (AGS cells [2]; 50 μM): 13.05 ± 0.98; Cell Cycle Distribution S (AGS cells [2]; 50 μM): 21.08 ± 1.90; Cell Cycle Distribution G0/G1 (AGS cells [2]; 100 μM): 64.22 ± 5.56; Cell Cycle Distribution G2/M (AGS cells [2]; 100 μM): 13.92 ± 1.06; Cell Cycle Distribution S (AGS cells [2]; 100 μM): 21.86 ± 4.50; IC50 (HL-60 cells; HL-60 cells, read-out: Antiproliferative IC50): 47 ± 4 µM; IC50 (COLO205 cells [3]; COLO 205, COLO205 cells, read-out: Antiproliferative IC50): 92.6 ± 15 µM; IC50 (AGS cells [4]; AGS cells): > 100 µM; IC50 (HT-29 cells): 96.4 ± 8.66 µM
3 | COc1ccc(-c2cc(=O)c3c(OC)c(OC)c(OC)c(OC)c3o2)cc1O [I, 3′-hydroxy-5,6,7,8,4′-pentamethoxyflavone] | 64.51 ± 1.26 | 6.46 ± 0.35 | 29.03 ± 1.61 | 64.14 ± 1.71 | 5.54 ± 0.41 | 30.32 ± 1.30 | 67.09 ± 0.57 | 5.43 ± 1.17 | 27.48 ± 0.62 | 68.03 ± 1.51 | 4.83 ± 1.48 | 27.15 ± 0.04 | 83.31 ± 1.06 | 0.02 ± 0.02 | 16.68 ± 1.04 | 57.25 ± 0.28 | 16.01 ± 0.21 | 26.74 ± 0.49 | 58.27 ± 0.96 | 17.94 ± 1.07 | Cell cycle arrest, in words (COLO205 cells [1]; COLO 205 cells, compound A 50 μM, compound I 100 μM): trends in G1 arrest; Cell Cycle Distribution S (AGS cells [2]; 10 μM): 23.79 ± 2.03; Cell Cycle Distribution G0/G1 (AGS cells [2]; 25 μM): 49.07 ± 1.22; Cell Cycle Distribution G2/M (AGS cells [2]; 25 μM): 16.15 ± 0.69; Cell Cycle Distribution S (AGS cells [2]; 25 μM): 34.79 ± 1.90; Cell Cycle Distribution G0/G1 (AGS cells [2]; 50 μM): 62.72 ± 1.27; Cell Cycle Distribution G2/M (AGS cells [2]; 50 μM): 0.59 ± 0.74; Cell Cycle Distribution S (AGS cells [2]; 50 μM): 36.70 ± 2.00; Cell Cycle Distribution G0/G1 (AGS cells [2]; 100 μM): 69.35 ± 0.70; Cell Cycle Distribution G2/M (AGS cells [2]; 100 μM): 12.65 ± 0.84; Cell Cycle Distribution S (AGS cells [2]; 100 μM): 18.01 ± 0.14; IC50 (HL-60 cells; [5]): 52.72 ± 0.22 µM; IC50 (COLO205 cells [3]; [6]): 76 ± 1.88 µM; IC50 (AGS cells [4]; AGS): 65.75 ± 0.41 µM; IC50 (HT-29 cells): > 100 µM
